Assay results taken from BindingDB's records for patent US12037345 (Taiho Pharmaceutical, 2024).

Target: T1, Tyrosine-protein phosphatase non-receptor type 11 (Homo sapiens, UniProt Q06124)
T1 sequence (Q06124 whole entry): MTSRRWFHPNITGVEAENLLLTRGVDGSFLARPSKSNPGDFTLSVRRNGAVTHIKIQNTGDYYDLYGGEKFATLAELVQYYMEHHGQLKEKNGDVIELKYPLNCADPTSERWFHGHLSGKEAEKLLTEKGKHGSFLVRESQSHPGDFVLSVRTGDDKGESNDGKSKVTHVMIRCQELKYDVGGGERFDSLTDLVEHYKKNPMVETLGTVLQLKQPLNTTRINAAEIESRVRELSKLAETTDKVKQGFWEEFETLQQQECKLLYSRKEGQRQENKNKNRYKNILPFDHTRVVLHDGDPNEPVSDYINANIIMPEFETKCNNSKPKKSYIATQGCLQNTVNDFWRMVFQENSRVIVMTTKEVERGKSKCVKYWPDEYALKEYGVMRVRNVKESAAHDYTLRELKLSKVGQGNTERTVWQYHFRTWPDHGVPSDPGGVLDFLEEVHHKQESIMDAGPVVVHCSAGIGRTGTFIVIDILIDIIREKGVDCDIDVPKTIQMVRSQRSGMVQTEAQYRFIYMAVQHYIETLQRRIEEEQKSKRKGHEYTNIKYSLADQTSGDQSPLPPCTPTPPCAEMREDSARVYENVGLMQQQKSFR
Test: SHP2 Biochemical Assay
Protocol: SHP2 activity was monitored by measuring the conversion of the surrogate substrate 6,8-difluoromethylumbelliferyl phosphate (DiFMUP) to the fluorescent product, 6,8-difluoromethylumbelliferone (DiFMU).SHP2 was pre-incubated with test compounds and the activating peptide pIRS1 (H2N-LN(pY)IDLDLV-(PEG)8-LST(pY)ASINFQK-amide) for 30 min, prior to addition of the 6,8-difluoromethylumbelliferyl phosphate (DiFMUP), (Thermo Fisher D6567). Final assay concentrations were 10 pM SHP2, […] pIRS1 peptide, 50 μM DiFMUP, 25 mM Bis-Tris propane, pH 7.0, 150 mM NaCl, 0.05% (v/v) Tween-20, 0.5 mM TCEP and 5% (v/v) DMSO. Rates of reaction were then measured over 30 min by monitoring fluorescence on a BMG Pherastar reader at excitation 360 nm/emission 450 nm. IC50 values were calculated in singlicate from the normalized dose-response plots using four parameter logistic curve fit. The Experiment for each compound was carried out in one time or multiple times, and the IC50 values were shown as a single value (for a compound measured in a single experiment) or an average value (for a compound measured in multiple experiments).

Question: `Cn1c(N2[C@H]3CC[C@@H]2[C@H](N)C3)nc2[nH]cc(-c3ccc4ncsc4c3Cl)c2c1=O` [US12037345, Example 101] was tested. Which IC50 did it give?
Answer: 1.5 nM
